US12344587B2, “Synthetic retinoids for use in RAR activation” (UNIVERSITY OF DURHAM, priority 2019, dated 2025)
In brackets after ≈: the same amount, converted by molar mass.

Columns and labels:
[1] = test system: SH-SY5Y cells; assay: Induction of neurite outgrowth; type: cell-based; conditions: 10 nM, 5 days; for fold induction at 0.01 µM: Homo sapiens, 120 h, read-out: Neurite Outgrowth Fold increase
Protocol: SY—SY5Y cells were plated at 10,000 cells/well in 12-well plates containing acid-treated/poly-L-lysine-coated coverslips. After 24 hours, each retinoid was added to the medium at a concentration of 10 nM and the plates were incubated for 5 days. After retinoid treatment, SH-SY5Y cells on coverslips were washed twice in PBS, fixed in 4% paraformaldehyde (PFA) for 20 minutes at room temperature, and washed twice with PBS.
For immunocytochemical staining of neurites, cells on coverslips were washed three times in PBS, and incubated in blocking solution (10% donkey serum and 0.1% triton X-100 in PBS) for 1 hour at room temperature. Cells were then labelled by incubation overnight at 4° C. with β-III tubulin primary antibody (Sigma-Aldrich) diluted 1:1000 in blocking buffer. Following incubation overnight, cells were washed three times with PBS containing 0.1% Triton X-100 solution (PBST) before incubation with anti-mouse monoclonal secondary antibody (1:300 in PBST; Jackson Immunoresearch) for 2 hours at room temperature. Finally, after three washes in PBST and a final wash in PBS, the coverslips were mounted on slides and stored at 4° C.
ImageJ software with the NeuronJ plugin was used to quantify neurite outgrowth on stained cells. For each experiment, 10 different randomly selected images were taken from each cover slip using a Nikon Eclipse E400 fluorescence microscope. Each image was converted into an 8-bit image (necessary for the NeuronJ plugin) and optimised with the brightness and contrast tool in GIMP (GNU Image Manipulation Program). For each image, individual traces were drawn for each clearly-identifiable neurite using the tracing tool in the NeuronJ plugin. Neurite length was measured in pixels and transformed into the corresponding length in μm depending on the magnification used. The average neurite length for each image was calculated by dividing total neurite length by the total number of neurites per image. Ten images per cover slip were measured and the mean calculated for the coverslip overall. Coverslips were in triplicate for each retinoid and concentration.

[2] = test system: retinoic acid response element (RARE); assay: X-Gal RA based reporter assay (genomic activity); type: cell-based; conditions: for Genomic Activity (X-Gal RA Based Reporter Assay) Efficacy (Emax) / EC50: Sil-15 reporter cells, overnight incubation; for EC50: read-out: Genomic Activity (X-Gal RA Based Reporter Assay) Potency (EC50); for Genomic activity and potency compared to retinoic acid (ATRA): X-Gal assay, versus ATRA
Protocol: The genomic activity of synthetic retinoids was evaluated by determining their efficiency of inducing transcription using the X-Gal Assay. The X-Gal Assay utilizes Sil-15 reporter cells in which the transcription of the LacZ gene is under control of a promoter linked to a retinoic acid response element (RARE). After treatment of the reporter cells with retinoids, the ability of the compounds to induce transcription can be attained by monitoring and quantifying the activity of β-galactosidase produced by the reporter cells.
Sil-15 cells were plated at 100,000 cells per well in 96-well plates coated in 0.1% gelatin. The following day, serial dilutions of retinoid ligands, prepared in Dulbecco's Modified Eagle's Medium (DMEM) containing 10% foetal calf serum (FCS) were added at concentrations from 10^−6 M to 10^−14 M and the plates were incubated overnight. All concentrations for the ATRA standard curve and the other retinoid ligands were tested in triplicate.
The next day, the assay plates were washed twice with phosphate buffered saline (PBS), fixed with 100 μl per well of 1% glutaraldehyde and 1 mM MgCl2 in PBS for 15 minutes and washed twice with PBS. β-galactosidase activity was detected by the addition of 100 μl of freshly-prepared 0.2% X-Gal in 1 mM MgCl2, 3.3 mM potassium ferricyanide and 3.3 mM potassium ferrocyanide in PBS per well. Plates were incubated for 6 hours at 37° C. in 5% CO2 and colour change was detected by reading the plates at 650 nm on an Emax Precision Microplate Reader (Molecular Devices).

[3] = test system: ERK1/2; assay: ERK1/2 phosphorylation assay, AlphaLISA SureFire Ultra (non-genomic activity); type: cell-based; set-up: Non-genomic activity (ERK½ Phosphorylation Assay) Efficacy (Emax): unit not given here; conditions: SH-SY5Y cells; for EC50: Homo sapiens, 0.5 h, read-out: Non-genomic activity (ERK½ Phosphorylation Assay) Potency (EC50); for EC50 / Non-genomic activity (ERK½ Phosphorylation Assay) Efficacy (Emax): serum-free, 30 minutes stimulation; for Erk 1/2 phosphorylation potency/efficacy compared to retinoic acid: versus retinoic acid
Protocol: The non-genomic activity of synthetic retinoids was evaluated by measuring their ability to induce phosphorylation of ERK1/2 using the AlphaLISA® SureFire® Ultra ERK1/2 kit.
In this assay, SH-SY5Y cells (100,000 cells/well) were plated in 96-well plates and serum-starved in DMEM for 24 hours. Retinoids were tested at concentrations from 10−5 M to 10−11 M and at a final concentration of 0.1% DMSO in the medium. The assay was carried out on the SH-SY5Y cells in serum-free DMEM, cells were stimulated by retinoid for 30 minutes at 37° C.
At the end of the assay, the medium was removed, and cells were lysed in 50 μl of freshly prepared 1× lysis buffer (supplied in the kit). The 96-well plate was agitated on an orbital shaker (SO1, Stuart Scientific) at approximately 350 rpm for 10 minutes at room temperature.
In the meantime, the activation buffer was diluted 25-fold in the reaction buffers. Under green light in a dark room, the acceptor beads were diluted 50-fold in the freshly prepared reaction mix while the donor beads were diluted 50-fold in dilution buffer to obtain two final reaction mixtures.
10 μl of cell lysate was then transferred per well into 384-well white Proxiplates plates (PerkinElmer) and 5 μl of each prepared acceptor and donor reaction mixture was added under green light in a dark room. Plates were wrapped with aluminium foil and incubated at room temperature for at least 3 hours. Readings were taken using an Envision system (PerkinElmer Life Sciences) using the AlphaScreen® settings.

[4] = Turbidimetric aqueous solubility; type: physicochemical; conditions: aqueous buffer, kinetic from dmso stock, 0.01 M phosphate buffered saline pH 7.4, 1% DMSO, 37° C.
Protocol: Test compound (10 mM in DMSO) is serially diluted to give solutions of 0.1, 0.3, 1 and 3 mM in DMSO. Each test compound concentration is then further diluted 1 in 100 in buffer (0.01 M phosphate buffered saline pH 7.4) so that the final DMSO concentration was 1% and the final test compound concentrations were 1, 3, 10, 30 and 100 μM. The experiment was performed at 37° C. and each concentration sample was incubated in 7 replicate wells. The plates were incubated for 2 hr at 37° C. before the absorbance was measured at 620 nm. The solubility of the sample was estimated from the concentration of test compound that produced an increase in absorbance above vehicle control (i.e., 1% DMSO in buffer).

| Compound | fold induction at 0.01 µM [1] | Genomic Activity (X-Gal RA Based Reporter Assay) Efficacy (Emax) [2] | EC50 [2] | EC50 [3] | Non-genomic activity (ERK½ Phosphorylation Assay) Efficacy (Emax) [3] | Average neurite length compared to cells treated with ATRA [1] | Genomic activity and potency compared to retinoic acid (ATRA) [2] | Erk 1/2 phosphorylation potency/efficacy compared to retinoic acid [3] | solubility at 2 h [4] |
| --- | --- | --- | --- | --- | --- | --- | --- | --- | --- |
| COc1cc2c(cc1C#Cc1ccc(C(=O)O)cn1)C(C)(C)CCC2(C)C [DC646] | 1.7 | 176.3 | 3.16 nM | 144 nM | 77.63 | – | – | – | – |
| CC1(C)CCC(C)(C)c2cc(C#Cc3ccc(C(=O)O)cn3)ccc21 [DC527] | 1.9 | 209.8 | 0.00347 nM | 30.6 nM | 92.51 | significantly larger average neurite length | increased genomic activity and potency | higher potency and efficacy | – |
| CC1(C)CCC(C)(C)c2cc(C#Cc3ccc(C(=O)O)c(F)c3)ccc21 [DC525] | 1.9 | 190 | 0.21 nM | 2.49 nM | 42.44 | significantly larger average neurite length | increased genomic activity and potency | higher potency | – |
| CC1(C)CCC(C)(C)c2cc(C#Cc3ccc(C(=O)O)cc3Cl)ccc21 [DC567] | 1.6 | 97.21 | 13.6 nM | 18.1 nM | 44.46 | – | – | – | – |
| COc1cc2c(cc1C#Cc1ccc(C(=O)O)cc1F)C(C)(C)CCC2(C)C [DC564] | 1.3 | 177.1 | 5.31 nM | 18.1 nM | 44.46 | – | – | – | – |
| CC1(C)CCC(C)(C)c2nc(C#Cc3ccc(C(=O)O)cc3F)cnc21 [DC712] | 1.2 | 179.7 | 0.382 nM | 6.35 nM | 94 | – | – | – | – |
| CC1(C)CCC(C)(C)c2cc(C#Cc3ccc(C(=O)O)cc3)ccc21 [EC23, reference compound] | 2.2 | 169.18 | 0.128 nM | 31.8 nM | 91.93 | – | – | – | 6.5 µM (≈ 2.16 µg/mL) |
| CC1(C)CCC(C)(C)c2cc(C#Cc3cnc(C(=O)O)cn3)ccc21 [DC529] | 1.3 | 174 | 3.89 nM | 30.4 nM | 28.85 | – | – | – | – |
| COc1cc2c(cc1C#Cc1cc(F)c(C(=O)O)c(F)c1)C(C)(C)CCC2(C)C [DC657] | 1.4 | 154.9 | 0.146 nM | 3.5 nM | 72.45 | – | – | – | – |
| Cc1cc2c(cc1C#Cc1ncc(C(=O)O)cn1)C(C)(C)CCC2(C)C [DC707] | 1.2 | 192.2 | 0.826 nM | 4.32 nM | 44.87 | – | – | – | – |
| CC1=C(/C=C/C(C)=C/C=C/C(C)=C/C(=O)O)C(C)(C)CCC1 [ATRA, All-trans-retinoic acid, reference compound] | 1.4 | 170.1 | 1.04 nM | 33.1 nM | 48.55 | – | – | – | – |
| COc1cc2c(cc1C#Cc1ncc(C(=O)O)cn1)C(C)(C)CCC2(C)C [DC706] | 1.3 | 265.9 | 603 nM | 90.8 nM | 36.87 | – | – | – | – |
| Cc1cc2c(cc1C#Cc1ccc(C(=O)O)cn1)C(C)(C)CCC2(C)C [DC656] | 1.6 | 177.2 | 0.427 nM | 502 nM | 56.77 | – | – | – | – |
| CC1(C)CCC(C)(C)c2cc(C#Cc3cc(F)c(C(=O)O)c(F)c3)ccc21 [DC540] | 1.7 | 185.3 | 0.015 nM | 159 nM | 79.73 | – | increased genomic activity and potency | higher potency and efficacy | – |
| Cc1cc2c(cc1C#Cc1ccc(C(=O)O)c(F)c1)C(C)(C)CCC2(C)C [DC667] | 1.4 | 169.8 | 0.134 nM | 4.85 nM | 44.3 | – | – | – | – |
| Cc1cc2c(cc1C#Cc1ccc(C(=O)O)cc1F)C(C)(C)CCC2(C)C [DC559] | 1.4 | 139.8 | 1.38 nM | 15.7 nM | 40.68 | – | – | – | – |
